41 molecules from patent publication US9212163B2, “Pesticidal compositions and processes related thereto” (Dow AgroSciences LLC, priority 2012, dated 2015) can be followed below.

For assay [1], the system named is Cabbage Looper (CL) (Trichoplusia ni). The assay is described as follows: Bioassay on Cabbage Looper (CL), 128-well diet tray assay. The class given is in vivo. The note with it: read-out: CL Rating; for pest or weed control at 50 µg/cm2, 50 µg/cm2: 168 h, % mortality, second instar larvae, 50 μg/cm^2 on artificial diet, 25° C., five to seven days, average of eight wells; for pest or weed control at 50 µg/cm2: Table 5: Prophetic Compounds Subsequently Exemplified. As to the method:
Certain molecules disclosed in this document were tested against BAW, CEW and CL using procedures described in the following examples. In the reporting of the results, the “BAW & CEW & CL Rating Table” was used (See Table Section).
Bioassays on CL (Trichoplusia ni)
Bioassays on CL were conducted using a 128-well diet tray assay. One to five second instar CL larvae were placed in each well (3 mL) of the diet tray that had been previously filled with 1 mL of artificial diet to which 50 μg/cm^2 of the test compound (dissolved in 50 μL of 90:10 acetone-water mixture) had been applied (to each of eight wells) and then allowed to dry. Trays were covered with a clear self-adhesive cover, and held at 25° C., 14:10 light-dark for five to seven days. Percent mortality was recorded for the larvae in each well; activity in the eight wells was then averaged. The results are indicated in the table entitled “Table 4: Assay Results Part 2” (See Table Section).

The subject of assay [2] is Beet Armyworm (BAW) (Spodoptera exigua). Description: Bioassay on Beet Armyworm (BAW), 128-well diet tray assay. The note with it: for pest or weed control at 50 µg/cm2, 50 µg/cm2 / pest or weed control at 50 µg/cm2: Spodoptera exigua, read-out: BAW Rating; for pest or weed control at 50 µg/cm2, 50 µg/cm2: 168 h, % mortality, second instar larvae, 50 μg/cm^2 on artificial diet, 25° C., five to seven days, average of eight wells; for pest or weed control at 50 µg/cm2: Table 5: Prophetic Compounds Subsequently Exemplified; for BAW Rating: Table 3: Assay Results Part 1. In kind it is in vivo. In a few lines:
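Artificial diet treated with 50 μg/cm^2 compound in 90:10 acetone-water was dried, then one to five second-instar larvae were placed per well, eight wells per compound. Trays were held at 25° C., 14:10 light-dark for five to seven days, and percent mortality averaged across wells.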

As to `O=C(NC1(C(=O)NCC(F)(F)F)CC1)c1ccc(/C=C/[C@H](c2cc(Cl)c(Cl)c(Cl)c2)C(F)(F)F)cc1C(F)(F)F` (single isomer, unassigned) [Compound F8A], the pest or weed control at 50 µg/cm2, 50 µg/cm2 in assay [1] and in assay [2] was 50 to 100% throughout. As for `O=C(NC1(C(=O)NCC(F)(F)F)CC1)c1ccc(/C=C/[C@@H](c2cc(Cl)c(Cl)c(Cl)c2)C(F)(F)F)cc1C(F)(F)F` (single isomer, unassigned) [Compound F8B], the pest or weed control at 50 µg/cm2, 50 µg/cm2 in assay [1] and in assay [2] was 50 to 100% in each case.

As for `Cc1cc(/C=C/C(c2cc(Cl)c(Cl)c(Cl)c2)C(F)(F)F)ccc1C(=O)NC1(C(=O)NCC(F)(F)F)CC1` (stereo not shown) [Compound F2], the pest or weed control at 50 µg/cm2, 50 µg/cm2 in assay [1] and in assay [2] was 50 to 100% in each case. For `O=C(NC1(C(=O)NCC(F)(F)F)CC1)c1ccc(/C=C/C(c2cc(Cl)c(Cl)c(Cl)c2)C(F)(F)F)cc1Br` (stereo not shown) [Compound F3], the pest or weed control at 50 µg/cm2, 50 µg/cm2 in assay [1] and in assay [2] was 50 to 100% in each case. Consider `O=C(NC1(C(=O)NCC(F)(F)F)CCC1)c1ccc(/C=C/C(c2cc(Cl)c(Cl)c(Cl)c2)C(F)(F)F)cc1Cl` (stereo not shown) [Compound F4], for which the pest or weed control at 50 µg/cm2, 50 µg/cm2 in assay [1] and in assay [2] was 50 to 100% each time.

In the case of `O=C(NC1(C(=O)NCC(F)(F)F)CCC1)c1ccc(/C=C/C(c2cc(Cl)c(Cl)c(Cl)c2)C(F)(F)F)cc1Br` (stereo not shown) [Compound F5], the pest or weed control at 50 µg/cm2, 50 µg/cm2 in assay [1] and in assay [2] was 50 to 100% in each case. As to `O=C(NC1(C(=S)NCC(F)(F)F)CC1)c1ccc(/C=C/C(c2cc(Cl)c(Cl)c(Cl)c2)C(F)(F)F)cc1C(F)(F)F` (stereo not shown) [Compound F6, (E)-4-(4,4,4-Trifluoro-3-(3,4,5-trichlorophenyl)but-1-enyl)-N-(1-(2,2,2-trifluoroethylcarbamothioyl)cyclopropyl)-2-(trifluoromethyl)benzamide], the pest or weed control at 50 µg/cm2, 50 µg/cm2 in assay [1] and in assay [2] was 50 to 100% throughout. Take `N#CC1(NC(=O)c2ccc(/C=C/C(c3cc(Cl)c(Cl)c(Cl)c3)C(F)(F)F)cc2Br)CC1` (stereo not shown) [Compound F7, (E)-2-Bromo-N-(1-cyanocyclopropyl)-4-(4,4,4-trifluoro-3-(3,4,5-trichlorophenyl)but-1-en-1-yl)benzamide]: the pest or weed control at 50 µg/cm2, 50 µg/cm2 in assay [1] and in assay [2] was 50 to 100% each time. `O=C(NC1(C(=O)NCC(F)(F)F)CC1)c1ccc(/C=C/C(c2cc(Cl)c(Cl)c(Cl)c2)C(F)(F)F)cc1Cl` (stereo not shown) [Compound F8]: the pest or weed control at 50 µg/cm2, 50 µg/cm2 in assay [1] and in assay [2] was 50 to 100% each time. For the molecule `O=C(NC1CC1(F)F)c1ccc(/C=C/C(c2cc(Cl)c(Cl)c(Cl)c2)C(F)(F)F)cc1Br` (stereo not shown) [Compound P31], the pest or weed control at 50 µg/cm2 in assay [1] and in assay [2] was 50 to 100% each time.

With `O=C(NC1(C(=O)NCC(F)(F)F)CC1)c1ccc(/C=C/C(c2ccc(F)c(F)c2F)C(F)(F)F)cc1C(F)(F)F` (stereo not shown) [Compound P65], the pest or weed control at 50 µg/cm2 in assay [1] and in assay [2] was 50 to 100% each time. In the case of `O=C(NC1(C(=O)NCC(F)(F)F)CC1)c1ccc(/C=C/C(c2cc(Cl)c(Cl)cc2Cl)C(F)(F)F)cc1Br` (stereo not shown) [Compound P108], the pest or weed control at 50 µg/cm2 in assay [1] and in assay [2] was 50 to 100% throughout. With `O=C(NC1(C(=O)NCC(F)(F)F)CC1)c1ccc(/C=C/C(c2cc(Cl)c(Cl)cc2Cl)C(F)(F)F)cc1C(F)(F)F` (stereo not shown) [Compound P110], the pest or weed control at 50 µg/cm2 in assay [1] and in assay [2] was 50 to 100% throughout. Consider `O=C(NC1(C(=O)NCC(F)(F)F)CC1)c1ccc(/C=C/C(c2cccc(OC(F)(F)F)c2)C(F)(F)F)cc1Br` (stereo not shown) [Compound P153], for which the pest or weed control at 50 µg/cm2 in assay [1] and in assay [2] was 50 to 100% in each case. Consider `COc1c(Cl)cc(C(/C=C/c2ccc(-n3cncn3)cc2)C(F)(F)F)cc1Cl` (stereo not shown) [DC20], for which the “BAW Rating” value in assay [2] was “A (50-100)”. The same measure, in the same setting: in the case of `N#Cc1cc(/C=C/C(c2cc(Cl)cc(C(F)(F)F)c2)C(F)(F)F)ccc1-n1cncn1` (stereo not shown) [DC33] it was “A (50-100)”; in that of `COc1c(Cl)cc(C(/C=C/c2ccc(-n3cncn3)c(C#N)c2)C(F)(F)F)cc1Cl` (stereo not shown) [DC34], “A (50-100)”. For the molecule `N#Cc1cc(/C=C/C(c2cc(Cl)c(F)c(Cl)c2)C(F)(F)F)ccc1-n1cncn1` (stereo not shown) [DC35], the “BAW Rating” value in assay [2] is listed as “A (50-100)”. `N#Cc1cc(/C=C/C(c2cc(Cl)cc(Cl)c2)C(F)(F)F)ccc1-n1cnc([N+](=O)[O-])n1` (stereo not shown) [DC37]: the “BAW Rating” value in assay [2] is recorded as “A (50-100)”.

Consider `N#Cc1cc(/C=C/C(c2cc(Cl)cc(Cl)c2)C(F)(F)F)ccc1-n1cnc(N)n1` (stereo not shown) [DC38], for which the “BAW Rating” value in assay [2] is listed as “A (50-100)”. On to `CC(=O)Nc1ncn(-c2ccc(/C=C/C(c3cc(Cl)cc(Cl)c3)C(F)(F)F)cc2C#N)n1` (stereo not shown) [DC39], for which the “BAW Rating” value in assay [2] is “A (50-100)”. In the case of `N#Cc1cc(/C=C/C(c2cc(Cl)c(Cl)c(Cl)c2)C(F)(F)F)ccc1-n1cnc([N+](=O)[O-])n1` (stereo not shown) [DC40, (E)-2-(3-Nitro-1H-1,2,4-triazol-1-yl)-5-(4,4,4-trifluoro-3-(3,4,5-trichlorophenyl)but-1-en-1-yl)benzonitrile], the “BAW Rating” value in assay [2] is on record as “A (50-100)”. Consider `N#Cc1cc(/C=C/C(c2cc(Cl)c(Cl)c(Cl)c2)C(F)(F)F)ccc1-n1cnc(N)n1` (stereo not shown) [DC41, (E)-2-(3-Amino-1H-1,2,4-triazol-1-yl)-5-(4,4,4-trifluoro-3-(3,4,5-trichlorophenyl)but-1-en-1-yl)benzonitrile], for which, in assay [2], the “BAW Rating” value is “A (50-100)”. With `N#Cc1cc(/C=C/C(c2cc(Cl)c(Cl)c(Cl)c2)C(F)(F)F)ccc1-n1cnc(N(C(=O)C2CC2)C(=O)C2CC2)n1` (stereo not shown) [DC42, (E)-N-(1-(2-Cyano-4-(4,4,4-trifluoro-3-(3,4,5-trichlorophenyl)but-1-en-1-yl)phenyl)-1H-1,2,4-triazol-3-yl)-N-(cyclopropanecarbonyl)cyclopropanecarboxamide], the “BAW Rating” value in assay [2] was “A (50-100)”.

In the case of `N#Cc1cc(/C=C/C(c2cc(Cl)c(Cl)c(Cl)c2)C(F)(F)F)ccc1-n1cnc(NC(=O)C2CC2)n1` (stereo not shown) [DC43, (E)-N-(1-(2-Cyano-4-(4,4,4-trifluoro-3-(3,4,5-trichlorophenyl)but-1-en-1-yl)phenyl)-1H-1,2,4-triazol-3-yl)cyclopropanecarboxamide], in assay [2], the “BAW Rating” value was “A (50-100)”. For the molecule `Cc1cc(/C=C/C(c2cc(Cl)cc(Cl)c2)C(F)(F)F)cc(C#N)c1-n1cncn1` (stereo not shown) [DC44], the “BAW Rating” value in assay [2] is given as “A (50-100)”. For `Cc1cc(/C=C/C(c2cc(Cl)c(Cl)c(Cl)c2)C(F)(F)F)cc(C#N)c1-n1cncn1` (stereo not shown) [DC45], the “BAW Rating” value in assay [2] is listed as “A (50-100)”. Consider `N#Cc1cc(/C=C\C(c2cc(Cl)c(F)c(Cl)c2)C(F)(F)F)ccc1-n1cncn1` (stereo not shown) [DC46], for which the “BAW Rating” value in assay [2] is recorded as “A (50-100)”. Turning to `FC(F)(F)C(/C=C/c1ccc(-n2cncn2)c(Br)c1)c1cc(Cl)cc(Cl)c1` (stereo not shown) [DC47], the “BAW Rating” value in assay [2] was “A (50-100)”. With `Fc1cc(/C=C/C(c2cc(Cl)cc(Cl)c2)C(F)(F)F)ccc1-n1cncn1` (stereo not shown) [DC48], the “BAW Rating” value in assay [2] is “A (50-100)”. `FC(F)(F)C(/C=C/c1ccc(-n2cncn2)c(Cl)c1)c1cc(Cl)c(Cl)c(Cl)c1` (stereo not shown) [DC49]: the “BAW Rating” value in assay [2] was “A (50-100)”. Still for that read-out and setting: in the case of `FC(F)(F)C(/C=C/c1ccc(-n2cncn2)c(Cl)c1)c1cc(Cl)cc(Cl)c1` (stereo not shown) [DC50] it was “A (50-100)”. On the same count and under the same terms, next, `FC(F)(F)c1cc(/C=C/C(c2cc(Cl)cc(Cl)c2)C(F)(F)F)ccc1-n1cncn1` (stereo not shown) [DC51]: “A (50-100)”. For `CNc1cc(/C=C/C(c2cc(Cl)cc(Cl)c2)C(F)(F)F)ccc1-n1cncn1` (stereo not shown) [DC57, (E)-5-(3-(3,5-Dichlorophenyl)-4,4,4-trifluorobut-1-en-1-yl)-N-methyl-2-(1H-1,2,4-triazol-1-yl)aniline], the “BAW Rating” value in assay [2] is “A (50-100)”.

Consider `CCOC(=O)c1cc(/C=C/C(c2cc(Cl)cc(Cl)c2)C(F)(F)F)ccc1-n1cncn1` (stereo not shown) [DC60], for which, in assay [2], the “BAW Rating” value is reported as “A (50-100)”. With `Cc1cc(/C=C/C(c2cc(Cl)cc(Cl)c2)C(F)(F)F)ccc1-n1cncn1` (stereo not shown) [DC62], in assay [2], the “BAW Rating” value was “A (50-100)”. Take `Cc1cc(/C=C/C(c2cc(Cl)c(Cl)c(Cl)c2)C(F)(F)F)ccc1-n1cncn1` (stereo not shown) [DC63]: the “BAW Rating” value in assay [2] is reported as “A (50-100)”. As to `FC(F)(F)C(/C=C/c1ccc(-n2cncn2)cc1Cl)c1cc(Cl)c(Cl)c(Cl)c1` (stereo not shown) [DC66], the “BAW Rating” value in assay [2] was “A (50-100)”. Regarding `FC(F)(F)C(/C=C/c1ccc(-n2cncn2)cc1Cl)c1cc(Cl)cc(Cl)c1` (stereo not shown) [DC67], in assay [2], the “BAW Rating” value was “A (50-100)”. Take `C/C(=C\C(c1cc(Cl)cc(Cl)c1)C(F)(F)F)c1ccc(-n2cncn2)cc1` (stereo not shown) [DC68, (E)-1-(4-(4-(3,5-Dichlorophenyl)-5,5,5-trifluoropent-2-en-2-yl)phenyl)-1H-1,2,4-triazole]: in assay [2], the “BAW Rating” value is given as “A (50-100)”. With `COC(/C=C/c1ccc(-n2cncn2)cc1)(c1cc(Cl)cc(Cl)c1)C(F)(F)F` (stereo not shown) [DC70, (E)-1-(4-(3-(3,5-Dichlorophenyl)-4,4,4-trifluoro-3-methoxybut-1-en-1-yl)phenyl)-1H-1,2,4-triazole], the “BAW Rating” value in assay [2] was “A (50-100)”.
